Source: US20260226101A1, “PEPTIDE WITH ANTI-INFLAMMATORY AND ANTI-MICROBIAL ACTIVITY” (priority 2023, published 2026)
Ends that are not written are not given here.

How the values were obtained:
[1] = test system: LPS-induced phosphorylation of ERK1/2 and p38 MAPK; experiment: Western blot of MAPK pathway in LPS-stimulated RAW 264.7 cells; assay type: cell-based, murine
Procedure: As previously described, RAW264.7 cells were cultured and treated with LPS and synthetic peptides. After 18 h, cells were washed with PBS and lysed by incubating with RIPA lysis buffer cocktail (RIPA Lysis buffer, PMSF (1 mM), Protease inhibitor (1 μg/mL), phosphatase inhibitor (1 mM)) at […] for 30 minutes. Post incubation, cell lysate was collected by scraping cells and centrifuged at 12000 rpm for 15 min.
The protein concentration was determined using the Bicinchoninic acid kit method with bovine serum albumin as the standard (provided in the kit), according to the manufacturer's instructions. Protein bands were electrophoretically transferred to a polyvinylidene difluoride (PVDF) membrane via semi-dry transfer blotting, Membranes were blocked with 5% BSA in PBST (1% Tween 20 in PBS) at 20-24° C. for 1 h, then incubated with primary antibodies against IL-10, TLR 4, VEGF, P38 p-p38, ERK and p-ERK, the dilutions are listed in table 3., at 4° C. overnight. GAPDH was used as a protein-loading control. The membrane was washed 3 times (10 min. each) with Tris-buffered saline/Tween 20 (TBST) and then treated with horseradish peroxidase (HRP)-conjugated secondary antibody (1:10000) for 1 h. The membrane was washed again with TBST. The membrane-binding antibodies were visualized later with the ECL detection reagent and images were acquired in a Fusion SL Imaging System. Band density was analyzed by densitometry using Image J software.

[2] = test system: LPS-stimulated RAW 264.7 cells; experiment: RT-qPCR of cytokine mRNA in LPS-stimulated RAW 264.7 cells; assay type: cell-based, murine; conditions: vs LPS control
Procedure: Total cellular RNA was isolated using the RNA isoplus reagent (Takara Bioscience, India) following the manufacturer's instructions. RNA was quantified spectrophotometrically by absorption measurements at 260 and 280 nm using the nano drop system.
As per table 8, RNA and the reaction mixture were mixed in PCR a tube and incubated in a thermal cycler for 5 min at 65° C. in and then cooled immediately on ice. Further, in the same tube, the step 2 reaction mixture was added and further incubated in the thermal cycler as mentioned below.
Primers were designed using the Primer3 online tool. GAPDH was used as a normalizing control. The sequence of primers used is provided in below table 10. Real-Time PCR was performed according to the manufacturer's protocol using Takara biosystem's real-time PCR mix (Takara, Bio-India) with ROX as a passive reference dye using applied Biosystem's step-one Real-Time PCR system. The following PCR program was used for all real-time PCR-based experiments: initial denaturation at 95° C. for 2 minutes, followed by 40 cycles of denaturation at 95° C. for 15 seconds, annealing at 60° C. for 30 seconds, extension at 60° C. for 15 seconds.
For quantification of gene expression, CT values of each gene were normalized to GAPDH and calibrated to the appropriate control sample using the SYBR Green-based comparative CT method (2-ΔΔCt). Fold change was calculated using the formula 2-ΔΔct.

[3] = test system: LPS-stimulated peritoneal macrophages; experiment: Cytokine ELISA in LPS-stimulated peritoneal macrophages; assay type: cell-based, BALB/c mice
Procedure: BALB/c mice (6-8 wk old) of either sex was injected IP with 1 ml of 4% sterile thioglycollate broth in PBS. After 4 d, mice were sacrificed, and peritoneal macrophages were harvested as described below [Meurer S K, 2016] and this model is well known as “Thioglycollate-induced peritonitis model”. […] After 4 days, mice were then euthanized, and the peritoneal macrophages were harvested by lavaging the peritoneal cavity with 5-6 mL of harvest medium (EDTA 5 mM+PBS). Isolated peritoneal exudate cells were washed twice with RPMI and centrifuged at 1000 rpm/400×g for 8-10 min at 4° C. […] The plates were then washed with warm PBS to remove non-adherent cells. […] After 24 h, culture supernatants were collected for estimation of cytokines by ELIZA and RTqPCR, whereas cells were harvested for western blotting. The procedure of ELISA, RTqPCR and other conditions are same as in the section. [Min Jee Kim et al., 2014].

BALB/C mice = experiment: Acute toxicity study, single dose; assay type: in vivo
Procedure: Once after acclimation period, a total of forty mice for IV route of administration, forty mice (half male and half female)/route were randomized based on bodyweight divided into four groups (10 in each group/per route, in each group 5 per sex) per strain via IV route of administration; prior to dosing initiation (table 12). On the day of dosing (designated as Day 0 of the study), the mice were 6 weeks old, and their body weights ranged from 20 to 25 g. The dosing volume was 0.1 ml per mice and the actual volume of peptide IS 111 solution administered was calculated based on body weight measurements obtained on the day of administration and was administered IV in increasing doses of the synthetic test peptide IS 111 0.6, 2.4, & 4.8 mg/kg; (administration once). The routes of administration were the same proposed for use in humans [Food and Drug Administration, 1988]. Prior to dosing the animals were deprived of food for 12 hours but had free access to drinking water. […]
After a single dose administration, mortality and clinical signs associated with toxicity were observed and recorded daily for consecutive two weeks; body weight changes were measured before and after administration on the 14th day. The animals were observed frequently during the first 4-6-hour period following dose administration and once daily, thereafter, for […], during which animals were evaluated for mortality, clinical signs of toxicity, and behavior. […] The number of animals killed for each of the doses was noted and the LD50 calculated by the Up and Down method, which is one of the most used to reduce the number of animals used [P. A. Botham, 2004]. […]
The mortality, general health status, and toxic reaction symptoms of the experimental groups were documented. Before the first day of IS 111 administration and during the experiments, a detailed clinical observation was carried out and recorded the changes in skin, eyes and mucous membrane, respiratory system, nervous system, activity, and behaviors of the […]. The body weight was measured and recorded before the first day of administration.

FAKKFAK [IS 111, Phe-Ala-Lys-Lys-Phe-Ala-Lys]
IL-10 levels (western blot) ([1]; IS111 treated cells): increased | Phosphorylation of ERK (p-ERK1/2) ([1]; LPS-induced, western blot): significantly inhibited | LPS-induced increase of p38 phosphorylation ([1]; concentration-dependent, western blot): markedly prevented | CCL2 mRNA expression ([2]; dose dependent): reduction | IL-1β mRNA expression [2]: dose dependently reduced | IL-6 mRNA expression [2]: significant reduction | TNF-α mRNA expression [2]: significant reduction | Concentration of maximum inhibition for all cytokines ([3]; IL-1β, IL-6, IL-12p70, TNF-α, text prints RAW 264.7 cells): 100 µM | IL-10 levels ([3]; summary table): TNF-α and ↑ IL-10 levels. | Adverse reaction in acute toxicity tests (BALB/C mice; any of the concentrations): no adverse reaction | Mortality (BALB/C mice; single dose 0.6, 2.4, 4.8 mg/kg, 14 days): No mortality | Body weight and organ weights (BALB/C mice; single dose 0.6/2.4/4.8 mg/kg, intravenous): no changes
